These results are taken from PMC12467068, “Design, Synthesis, and Computational Insights into PKMYT1 Inhibitors for the Treatment of Breast Cancer” (Biomedicines, 2025).

The target in test [1] is T1, PKMYT1 (Homo sapiens, UniProt Q99640).
T1 sequence (Q99640 1-499): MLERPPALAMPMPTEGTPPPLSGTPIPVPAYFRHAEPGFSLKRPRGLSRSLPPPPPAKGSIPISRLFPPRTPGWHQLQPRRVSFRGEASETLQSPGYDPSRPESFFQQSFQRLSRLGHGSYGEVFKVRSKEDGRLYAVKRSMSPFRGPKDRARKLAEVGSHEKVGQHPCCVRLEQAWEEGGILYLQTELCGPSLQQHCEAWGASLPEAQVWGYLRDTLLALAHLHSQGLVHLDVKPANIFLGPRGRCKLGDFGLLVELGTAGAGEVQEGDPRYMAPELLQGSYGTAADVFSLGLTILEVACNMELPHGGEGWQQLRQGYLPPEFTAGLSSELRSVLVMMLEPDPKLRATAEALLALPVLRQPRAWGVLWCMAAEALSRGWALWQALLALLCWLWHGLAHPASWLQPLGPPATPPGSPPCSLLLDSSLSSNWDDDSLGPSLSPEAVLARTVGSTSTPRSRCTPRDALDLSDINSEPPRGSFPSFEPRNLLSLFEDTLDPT
In words: PKMYT1 enzyme inhibition assay (LanthaScreen Eu kinase binding method). Particulars: mean of two separate experiments. The method, then:
The PKMYT1 kinase assay was conducted with the LanthaScreen™ Eu kinase binding method, as provided by Thermo Fisher Scientific (Waltham, MA, USA). Initially, compounds were prepared at a concentration of 4 mM in DMSO and subsequently diluted to various concentrations in 1X buffer. […] The plate was then incubated in the dark at 25 °C for 1 h, and fluorescence signals were recorded at 665 nm and 615 nm.

Test [2] has as its system HCC1569 cells. Description: Cell proliferation assay (CCK-8), HCC1569. It counts as cell-based. The following applies: for IC50: Homo sapiens, HCC1569, 120 h, CCNE1-amplified breast cancer cells, 5-day incubation, mean ± SD, n = 3. The method, then:
(§1) HCC1569 and OVCAR3 cells (2 × 10^3/well) were seeded in 96-well plates and cultured for 24 h at 37 °C, 5% CO2. Compounds at varying concentrations were added, followed by 5-day incubation. Cell viability was assessed using Cell Counting Kit-8 (CCK-8) with absorbance measurement at 450 nm. HCC1569 (BNCC341698) was purchased from BNCC and OVCAR3 (CL-0178) was purchased from Procell.

For test [3], the system named is OVCAR3 cells. In words: Cell proliferation assay (CCK-8), OVCAR3. Particulars: for IC50: Homo sapiens, OVCAR-3, 120 h, CCNE1-amplified ovarian cancer cells, 5-day incubation, mean ± SD, n = 3. The class given is cell-based. The method, then: as §1
The test system of test [4] is BEAS-2B cells. Description: Anti-proliferative activity in normal lung epithelial cells BEAS-2B. Particulars: Homo sapiens, BEAS-2B; lung epithelial cells; mean ± SD, n = 3. It counts as cell-based.
For test [5], the system named is A549 cells. In words: Anti-proliferative activity in low-expressing CCNE1 cells A549. The class given is cell-based. Particulars: Homo sapiens, A549; lung cancer cells, low CCNE1 expression; mean ± SD, n = 3.

As to `Cc1ccc(O)c(C)c1NC(=O)c1cnc(Nc2ccccc2)nc1` [Compound M1], in test [1], the IC50 is 220 nM.
The same measure, in the same setting: then `Cc1ccc(O)c(C)c1NC(=O)c1cnc(Nc2ccccc2)nc1N` [MY-1, 4-amino-2-(phenylamino)-N-(3-hydroxy-2,6-dimethylphenyl)pyrimidine-5-carboxamide], with 26 nM; and `Cc1ccc(O)c(C)c1NC(=O)c1cnc(Nc2ccccc2Cl)nc1N` [MY-2, 4-amino-2-((2-chlorophenyl)amino)-N-(3-hydroxy-2,6-dimethylphenyl)pyrimidine-5-carboxamide], with 150 nM; and `Cc1ccc(O)c(C)c1NC(=O)c1cnc(Nc2cccc(Cl)c2)nc1N` [MY-3, 4-amino-2-((3-chlorophenyl)amino)-N-(3-hydroxy-2,6-dimethylphenyl)pyrimidine-5-carboxamide], with 17 nM.
On the same count and under the same terms, then `Cc1ccc(O)c(C)c1NC(=O)c1cnc(Nc2ccc(Cl)cc2)nc1N` [MY-4, 4-amino-2-((4-chlorophenyl)amino)-N-(3-hydroxy-2,6-dimethylphenyl)], with 16 nM.
In test [1], `Cc1ccc(O)c(C)c1NC(=O)c1cnc(Nc2ccc(F)cc2)nc1N` [MY-5, 4-amino-2-((4-fluorophenyl)amino)-N-(3-hydroxy-2,6-dimethylphenyl)pyrimidine-5-carboxamide] came in with an IC50 of 20 nM.
Turning to `Cc1ccc(O)c(C)c1NC(=O)c1cnc(Nc2ccc(Br)cc2)nc1N` [MY-6, 4-amino-2-((4-bromophenyl)amino)-N-(3-hydroxy-2,6-dimethylphenyl)pyrimidine-5-carboxamide], the IC50 in test [1] amounted to 36 nM.
Still for that read-out and setting: then `Cc1ccc(Nc2ncc(C(=O)Nc3c(C)ccc(O)c3C)c(N)n2)cc1` [MY-7, 4-amino-2-(p-tolylamino)-N-(3-hydroxy-2,6-dimethylphenyl)pyrimidine-5-carboxamide], with 28 nM; and `Cc1ccc(O)c(C)c1NC(=O)c1cnc(Nc2ccc(C(C)C)cc2)nc1N` [MY-8, 4-amino-2-((4-isopropylphenyl)amino)-N-(3-hydroxy-2,6-dimethylphenyl)pyrimidine-5-carboxamide], with 46 nM; and `Cc1ccc(O)c(C)c1NC(=O)c1cnc(Nc2ccc(-c3ccccc3)cc2)nc1N` [MY-9, 4-amino-2-([1,1′-biphenyl]-4-ylamino)-N-(3-hydroxy-2,6-dimethylphenyl)pyrimidine-5-carboxamide], with 32 nM.
Turning to `Cc1ccc(O)c(C)c1NC(=O)c1cnc(Nc2ccc(N3CCOCC3)cc2)nc1N` [MY-10, 4-amino-2-((4-morpholinophenyl)amino)-N-(3-hydroxy-2,6-dimethylphenyl)pyrimidine-5-carboxamide], the IC50 in test [1] came out at 8.6 nM; in test [2] it was 2950 ± 320 nM; in test [3], 810 ± 60 nM.
The corresponding values for `Cc1ccc(O)c(C)c1NC(=O)c1cnc(Nc2ccc(N3CCN(C)CC3)cc2)nc1N` [MY-11, 4-amino-2-((4-(4-methylpiperazin-1-yl)phenyl)amino)-N-(3-hydroxy-2,6-dimethylphenyl)pyrimidine-5-carboxamide] are 7.1 nM, 3560 ± 590 nM and 2120 ± 330 nM.
In the same order, the values of `Cc1ccc(O)c(C)c1NC(=O)c1cnc(Nc2ccc([N+](=O)[O-])cc2)nc1N` [MY-12, 4-amino-2-((4-nitrophenyl)amino)-N-(3-hydroxy-2,6-dimethylphenyl)pyrimidine-5-carboxamide] are 5.1 nM, 6350 ± 310 nM and 740 ± 110 nM.
For the compound `Cc1ccc(O)c(C)c1NC(=O)c1cnc(Nc2ccc(P(C)(C)=O)cc2)nc1N` [MY-13, 4-amino-2-((4-(dimethylphosphoryl)phenyl)amino)-N-(3-hydroxy-2,6-dimethylphenyl)pyrimidine-5-carboxamide], the IC50 is 7.9 nM in test [1], > 8000 nM in test [2] and > 8000 nM in test [3]. For the same compound, the “anti-proliferative activity (in words)” value in test [2] (HCC1569) and in test [3] (OVCAR3) was “complete loss of activity” each time.
The compound `Cc1ccc(O)c(C)c1NC(=O)c1cnc(Nc2ccc(C(=O)N(C)C)cc2)nc1N` [MY-15, 4-amino-2-((4-(dimethylcarbamoyl)phenyl)amino)-N-(3-hydroxy-2,6-dimethylphenyl)pyrimidine-5-carboxamide] registered an IC50 in test [1] of 15 nM. That is a double-digit nanomolar value.
Turning to `Cc1ccc(O)c(C)c1NC(=O)c1cnc(Nc2ccc(C(=O)N3CCOCC3)cc2)nc1N` [MY-16, 4-amino-2-((4-(morpholine-4-carbonyl)phenyl)amino)-N-(3-hydroxy-2,6-dimethylphenyl)pyrimidine-5-carboxamide], the IC50 is 6.1 nM in test [1], > 8000 nM in test [2] and 1190 ± 90 nM in test [3].
For `Cc1ccc(O)c(C)c1NC(=O)c1cnc(Nc2ccc3c(c2)CN(C)C3=O)nc1N` [MY-17, 4-amino-2-((2-methyl-1-oxoisoindolin-5-yl)amino)-N-(3-hydroxy-2,6-dimethylphenyl)pyrimidine-5-carboxamide], the IC50 in test [1] was 3.3 nM; in test [2], > 8000 nM; in test [3] it was 980 ± 70 nM.
The corresponding values for `Cc1ccc(O)c(C)c1NC(=O)c1cnc(Nc2ccc3ccoc3c2)nc1N` [MY-18, 4-amino-2-(benzofuran-6-ylamino)-N-(3-hydroxy-2,6-dimethylphenyl)pyrimidine-5-carboxamide] are 8.5 nM, 6970 ± 1090 nM and 3310 ± 180 nM.
In the same order, the values of `Cc1ccc(O)c(C)c1NC(=O)c1cnc(Nc2ccc3ncsc3c2)nc1N` [MY-19, 4-amino-2-(benzo[d]thiazol-6-ylamino)-N-(3-hydroxy-2,6-dimethylphenyl)pyrimidine-5-carboxamide] are 3.5 nM, 3140 ± 280 nM and 1250 ± 60 nM.
The corresponding values for `Cc1ccc(O)c(C)c1NC(=O)c1cnc(Nc2ccc3scnc3c2)nc1N` [MY-20, 4-amino-2-(benzo[d]thiazol-5-ylamino)-N-(3-hydroxy-2,6-dimethylphenyl)pyrimidine-5-carboxamide] are 5.7 nM, 3540 ± 210 nM and 600 ± 90 nM.
As for `Cc1ccc(O)c(C)c1NC(=O)c1cnc(Nc2ccc3occc3c2)nc1N` [MY-21, 4-amino-2-(benzofuran-5-ylamino)-N-(3-hydroxy-2,6-dimethylphenyl)pyrimidine-5-carboxamide], in test [1], the IC50 turned out to be 12 nM. In other words, the double-digit nanomolar range.
Regarding `Cc1cc2c(C(N)=O)c(N)n(-c3c(C)ccc(O)c3C)c2nc1C` [RP-6306, reference compound], the IC50 is 110 ± 20 nM in test [2], 2600 ± 540 nM in test [4], 1450 ± 230 nM in test [5] and 90 ± 10 nM in test [3].
